Test results: patent publication US20050119284A1, “ANTIVIRAL AGENTS AND METHODS OF USE” (priority 2003, published 2005)
Where “and” joins values, the source holds several entries; their conditions need not be identical. Equal entries are not always repeated. Entries after “also recorded” stand apart in the source; their conditions may differ.

Tests used:
[1] = tested on: bovine viral diarrhea virus (BVDV); assay: BVDV plaque assay in MDBK cells; type: cell-based; conditions: for Antiviral effect on BVDV in the presence of thymidine (in words): 1 mM thymidine, cytotoxicity blocked; for Effect on viral yield: MDBK cells with BVDV, without thymidine; for Antiviral effect on BVDV replication (in words): increasing concentrations; for Decrease in BVDV replication / viral titers: in the presence of 1 mM thymidine; for Pfu/microL Avg: average of three; for Pfu/microL: individual replicates
[2] = tested on: MDBK cells
[3] = tested on: HCV 1 bN replicon; conditions: 100 uM, 1 mM thymidine, 72 hours, Huh7
[4] = tested on: MDBK cells; assay: Host cell growth / cytotoxicity, mock-infected MDBK cells counted by flow cytometry; conditions: for Decrease in cell growth: confluent MDBK cells, concentrations used for the AZA/MPA comparison; for Cellular cytotoxicity / cell viability at antiviral concentrations: MDBK cells, concentrations assayed
[5] = given to mice; cited from earlier work
[6] = tested on: HCV 1 bN replicon; conditions: two recent studies; cited from earlier work

With `Sc1ncnc2nc[nH]c12` [6-mercaptopurine] the “Antiviral effect on BVDV in the presence of thymidine (in words)” value (shortened to “Antiviral effect on BVDV in the presence”) [1] was “significantly reduced; also recorded: still possessed this antiviral effect”, the “Effect on viral yield” value [1] was “decreased” and the “Antiviral effect on BVDV replication (in words)” value ([1]; MDBK cells, listed as 6MP) was “sensitive; also recorded: specifically inhibited”. The “Decrease in BVDV replication / viral titers” value [1] was 2 log, the “Effect on cell growth” value [2] was “decreased” and the “Effect on cell growth in the presence of thymidine” value [2] was “neither azathioprine metabolite had an appreciable effect”.
In the case of `CSc1ncnc2nc[nH]c12` [6-methyl mercaptopurine], the “Effect on viral yield” value [1] is reported as “no effect” and the “Effect on cell growth” value [2] is reported as “no effect”.
With `Nc1nc2nc[nH]c2c(=S)[nH]1` [6-thioguanine] the “Antiviral effect on BVDV in the presence” value [1] was “did not”, the “Effect on viral yield” value [1] was “decreased” and the “Antiviral effect on BVDV replication (in words)” value ([1]; MDBK cells) was “no antiviral affect”. The “Decrease in BVDV replication / viral titers” value [1] was “did not”, the “Effect on cell growth” value [2] was “decreased” and the “Effect on cell growth in the presence of thymidine” value [2] was “neither azathioprine metabolite had an appreciable effect”.
In the case of `OC[C@H]1O[C@@H](n2cnc3c(S)ncnc32)[C@H](O)[C@@H]1O` [6TI, 6 thioinosine], the “Antiviral properties relative to 6MP” value ([1]; BVDV replication, FIG. 11) is reported as 2-3 fold.
For `Cn1cnc([N+](=O)[O-])c1Sc1ncnc2nc[nH]c12` [AZA, azathioprine], the “Antiviral effect on BVDV in the presence” value [1] was “the majority of the antiviral effect was maintained; also recorded: still occurred”, the “Inhibition of viral replication relative to inhibition of cell growth” value ([1]; MDBK cells, increasing AZA, 72 hours) was 10-100 fold and the “Antiviral effect on BVDV replication (in words)” value ([1]; MDBK cells) was “sensitive; also recorded: specifically inhibited”. The “Decrease of BVDV replication relative to MPA” value ([1]; at doses that achieved similar cytoxicity) was 10 fold, the “Virus produced per living cell, compared to cells grown in MPA” value ([1]; confluent MDBK cells, concentrations causing similar decrease in cell growth) was 12% and the “Amount of BVDV virus generated, AZA versus MPA” value ([1]; confluent MDBK cells, doses allowing similar cellular growth, 72 hours) was “significantly less”. The “Decrease in BVDV replication / viral titers” value [1] was “two”, the “Amount of replicon compared to no drug” value [3] was ~50% and the “Increase in number of cycles to reach critical threshold (Ct) compared to no drug” value [3] was ~1 cycle. For the same compound, the “Decrease in cell growth” value [4] was ~50%.
In the case of `COc1c(C)c2c(c(O)c1C/C=C(\C)CCC(=O)O)C(=O)OC2` [MPA, mycophenolate], the “Effect on cell growth” value [2] is reported as “killed all the cells” and the “Decrease in cell growth” value [4] is reported as ~50%.
In the case of `CC(=O)/C=C\Sc1ncnc2[nH]cnc12` [cis-AVTP, cis-6-(2-acetylvinylthio) purine], the “Antiviral effect on BVDV in the presence” value [1] is reported as “still occurs”, the “Pfu/microL Avg” value ([1]; 10 microM) is reported as 2 Pfu/microL and the Pfu/microL ([1]; 10 microM, listed as cis) is reported as 1.4 Pfu/microL and 2.5 Pfu/microL and 2.1 Pfu/microL. For the same compound, the “Pfu/microL Avg” value ([1]; 100 microM) was 0.35 Pfu/microL, the Pfu/microL ([1]; 100 microM, listed as cis) was 0.34 Pfu/microL and 0.35 Pfu/microL and 0.36 Pfu/microL and the “Antiviral effect on BVDV replication (in words)” value ([1]; MDBK cells) was “sensitive; also recorded: significant anti-viral activity”. The “Antiviral effect on BVDV replication (in words)” value ([1]; MDBK cells, listed as cisAVTP) was “able to inhibit”, the “Levels of 6MP in the liver and gastrointestinal tract” value [5] was “high levels” and the Side effects [5] was “no significant side effects”. For the same compound, the “Cellular cytotoxicity / cell viability at antiviral concentrations” value [4] was “without cellular cytoxicity” and the “Cellular cytotoxicity / cell viability at antiviral concentrations” value ([4]; listed as cisAVTP) was “did not affect overall cell viability”.
For `NC(=O)c1ncn([C@@H]2O[C@H](CO)[C@@H](O)[C@H]2O)n1` [ribavirin], the “Antiviral (Hepatitis GB) or anti-HCV replicon activity” value [6] is given as “weak”.
For `CC(=O)/C=C/Sc1ncnc2[nH]cnc12` [trans-AVTP, trans-6-(2-acetylvinylthio) purine], the “Antiviral activity compared between isomers” value ([1]; 10 uM) was “less antiviral than cis-AVTP”, the “Pfu/microL Avg” value ([1]; 10 microM) was 65.67 Pfu/microL and the Pfu/microL ([1]; 10 microM) was 53 Pfu/microL and 73 Pfu/microL and 71 Pfu/microL. For the same compound, the “Pfu/microL Avg” value ([1]; 100 microM) was 0.33 Pfu/microL and the Pfu/microL ([1]; 100 microM) was 0.32 Pfu/microL and 0.38 Pfu/microL and 0.29 Pfu/microL.
